Measured values as given in patent US7094602B2, “Method for cell culture” (Fuji Photo Film Co, Ltd., priority 2002, dated 2006).

Legend:
CHL cells = assay: Influence of chelating agent on cultured cells (Example 5); assay type: cell-based, Chinese Hamster; conditions: cultured two days at 37° C. in the medium, 1.5 mM EDTA, GEDTA, DTPA, EDTPO, 3 g/l HMPA, 3 mM HEDP
Procedure: CHL cells cultured beforehand were collected by trypsinization, and the cell density was adjusted to 50000 cells/ml. This cell suspension was inoculated on a polystyrene cell culture dish at a cell number of 10000 cells/cm^2, and each of the following media was added. Then, the cells were cultured at 37° C. for two days by using a CO2 incubator. The results of evaluation of stimulative property on the cells based on morphology and proliferation property of the cultured cells are shown in Table 3. The results are represented by using the result obtained for the cells cultured with the medium a mention d in the table as a standard. […] Eagle's minimum medium (MEM) • Medium b: […] MEM added with 1.5 mM diethylenetriamine-N,N,N′,N,N-pentaacetic acid (DTPA) • Medium e: MEM added with 3 g/l of sodium hexametaphosphate (HMPA) • Medium f: […] MEM added with 1.5 mM ethylenediamine-N,N,N′,N′-tetrakis(methylenephosphoric acid) (EDTPO) As for the media b to f, pH was adjusted to that of the medium a with NaOH or HCl after the chemicals were added.

[1] = tested on: CHL (Chinese Hamster Lung Cell); assay: Detachment of cultured cell layer from carrier for cell culture (Example 2); assay type: cell-based; conditions: time required to detach CHL cell layer from calcium alginate/collagen carrier on immersion; MEM with EDTA, 3 g/l HMPA or 3 mM HEDP
Procedure: • Used cell: CHL (Chinese Hamster Lung Cell) • Used medium: Eagle's minimum medium containing 10% bovine fetal serum Carrier for Cell Culture: The carrier for cell culture prepared in Example 1, adhered to bottom surfaces of polystyrene cell culture dishes with double-sided tapes, and a polystyrene cell culture dishes alone as a comparative example were subjected to UV sterilization or electron beam sterilization. The operation, wherein the medium was added to the dishes to immerse the carrier for cell cultures for 5 minutes and then the medium was exchanged, was repeated three times, and then the dishes were left overnight to allow the medium to infiltrate into the carriers for cell culture. The calls cultured beforehand were collected by trypsin treatment, and the cell density was adjusted to 50,000 cells/ml. After the medium in the cells and dishes was discarded, the cell suspension was inoculated into the dishes at a cell number of 10,000 cells/cm^2, and then the medium was added. Thereafter, the cells were cultured at 37° C. for two days by using a CO2 incubator. The samples obtained by the culture were immersed in each of the following seven kinds of detachment solutions and non-detachment solutions, and then the cell layers were pulled with a pair of tweezers to examine state of detachment of the cell layers from the carriers for cell culture. A period of time required for the detachment of each cell layer was measured. Then, the cell sheets detached with an immersion time in a detachment solution of 30 minutes was placed on a polystyrene cell culture dish, added with the medium and cultured at 37° C. for one day by using a CO2 incubator. The cells were stained with trypan blue and observed under an optical microscope. The use of detachment agents of the present invention provided favorable detachment characteristics, that is, high survival rate of the cells and non-stimulative property (i.e., no cell deformation due to stimulation) was successfully confirmed. […]

[2] = tested on: CHL (Chinese Hamster Lung Cell); assay type: cell-based; conditions: cell layer transfer with weighting 0.8 g/cm^2, immersion 10 minutes, culture one day, immersion 20 minutes; for State of cells after detachment: Morphology of survived cells: optical microscope; for State of cells after detachment: Survival rate: trypan blue
Text: The samples obtained by the culture on the carriers for cell culture in Example 2 were taken out together with the carriers for cell culture, and placed on polystyrene cell culture dishes in such a manner that the cell layer surfaces contacted with the dishes, and foamed urethane filters having a thickness of 3 mm and stainless steel plates were placed thereon in this order. The weight of each stainless steel plate was adjusted so that the total weight including the weight of the urethane filter became 0.8 g/cm^2. Then, the samples were immersed in the detachment solution (iii), (iv) or (v) mentioned in Example 2 for 10 minutes, and after the solution was replaced with the medium, culture was performed at 37° C. for one day by using a CO2 incubator. The cultures were immersed in the same detachment solutions for 20 minutes, and then the carriers for cell culture were detached by pulling with a pair of tweezers. Then, the solutions were replaced with the medium, and culture was continued at 37° C. for one day by using a CO2 incubator. The cells were stained with trypan blue and then observed under an optical microscope. Favorable results were obtained with the detachment solutions of the present invention. In the sample where the weight was applied only by using the stainless steel plates without using the […] and the sample where the detachment solution (i) was used, the cells died during the transfer operation. Further, in the sample where the detachment solution (ii) was used, transfer was not successful.

[3] = tested on: HepG2 (human liver cancer derived cells) laminated on BRL (Buffalo Rat Liver 3A); assay: Lamination of cell layers, cytochrome P-450 3A metabolism of BFC to HFC (Example 4); assay type: cell-based; conditions: HepG2 layer transferred on BRL with the detachment solution; cultured 90 hours, BFC added, cultured two days
Procedure: In the same manner as that of Example 2, HepG2 (human liver cancer derived cells) was cultured on the carrier for cell culture of Example 1, and BRL (Buffalo Rat Liver 3A, ATCC No. CRL 1442) was cultured on a polystyrene cell culture dish. Cell layers were transferred on the cells cultured on the dishes by using the detachment solution (v) mentioned in Example 2 in the same manner as that of Example 3 to obtain laminated cells.

Row | Structure (SMILES) | State of cells: Morphology (CHL cells) | State of cells: Proliferation rate (CHL cells; relative to medium a (MEM)) | Detachment time [1] [min] | State of cells after detachment: Morphology of survived cells [2] | State of cells after detachment: Survival rate [2] | HFC produced through metabolism by cytochrome P-450 3A in laminated cells (fluorescence microscope) [3]
1 | O=C(O)CN(CCN(CC(=O)O)CC(=O)O)CC(=O)O [(iii) MEM + EDTA, EDTA] | X (30% or less of not rounded cells are indicated with X) | X (degradation to 70% or less is indicated with X) | 15 |  |  | 
2 | O=P1([O-])OP(=O)([O-])OP(=O)([O-])OP(=O)([O-])OP(=O)([O-])OP(=O)([O-])O1.[Na+].[Na+].[Na+].[Na+].[Na+].[Na+] [(iv) MEM + HMPA, sodium hexametaphosphate] |  |  | 10 | Not deformed | 90% or more | 
3 | CC(O)(P(=O)(O)O)P(=O)(O)O [(v) MEM + HEDP, 1-hydroxyethane-1,1-diphosphoric acid] |  |  | 20 | Not deformed | 90% or more | Fluorescence derived from HFC was observed in the portions of HepG2
